# Measurements: patent US20090227795A1, “TARGET MOLECULES OF PLADIENOLIDES, COMPOUNDS BINDING TO SUCH TARGET MOLECULES, AND SCREENING METHOD THEREOF” (Eisai R & D Management Co., Ltd., priority 2006, published 2009)
# Tests used:
# HeLa cells = assay: Observation of intracellular localization of fluorescent probe and competition assay (microscopy, anti-SC-35 staining); format: cell-based; details: for fluorescence intensity derived from the fluorescent probe after competition (rank order): 1 μM competitor added 1 hour before 1 μM fluorescent probe, lower intensity = stronger competition
# Procedure: 1 μM of the fluorescent probe produced in Example A2 was added to HeLa cells, and the obtained mixture was incubated at 37° C. in an incubator for 1 hour. Thereafter, the medium was removed, and the remaining culture was further cultured for 1 hour in a fresh medium without probes and non-specifically adsorbed compounds were washed. The medium was removed again. The remaining culture was then washed with PBS. Thereafter, the cells were immobilized in 3.7% formaldehyde in PBS.
# The immobilized cells were well washed with PBS, and were then permeabilized with 0.5% or 1% Triton X-100 in PBS. Thereafter, blocking was carried out with FBS or a blocking solution, and a primary antibody (anti-SC-35 monoclonal antibody; Sigma; S4045) was added to the resultant, so as to carry out a reaction. The reaction product was washed with PBS, and blocking was carried out again with FBS or a blocking solution. A fluorescent-labeled secondary antibody (TexasRed-labeled; Jackson) was added to the resultant, so as to carry out a reaction. The labeled sample was rapidly rinsed with distilled water, and it was then encapsulated into a Prolong antifade reagent (Molecular Probes). Localization of the fluorescent probe and the anti-SC-35 antibody was observed under a fluorescence microscope (DeltaVision, Applied Precision, Inc.) or a confocal microscope (LSM510; Carl Zeiss).
# Furthermore, pladienolides or the derivatives thereof were used in the aforementioned experimental operations to carry out a competition assay. That is, before addition of the fluorescent probe, 1 μM pladienolides or the derivatives thereof were added to the cells, and the obtained mixture was then cultured for 1 hour. Thereafter, the same above operations for immobilization and staining were performed on the culture, followed by observation with a microscope, so as to confirm localization of the fluorescent probe.
# SAP130 = target: T1, SAP130 (Homo sapiens, UniProt O75533+Q15393+Q7RTV0); assay: Detection of band shift using GFP-fused SAP145 or GFP-fused SAP130 proteins with photoaffinity biotin probe; format: binding; details: 1.5 μM probe, HeLa cells stably expressing GFP-SAP145 or GFP-SAP130, band shift
# T1 construct: expressed in transfected cells
# Procedure: SAP145 and SAP130, which were considered to be target molecules, were detected in almost the same position on SDS-PAGE. Thus, strains stably expressing a GFP-fused SAP145 or GFP-fused SAP 130 protein were prepared, and an experiment was then […] out using a photoaffinity biotin probe.
# A 1.5 μM photoaffinity biotin probe was added to HeLa cells stably expressing GFP-SAP145, and the obtained mixture was then cultured for 1 hour. After washing the cells with PBS, M-PER (PIERCE) was then added thereto, followed by stirring at 4° C. for 1 hour. Thereafter, 1/10 vol. of 1.5 M NaCl-0.5% Tween 20 solution was added to the reaction solution, and the obtained mixture was then treated with a vortex (10 sec.×3). The resultant was centrifuged at 15,000 rpm at 4° C. for 5 minutes (TOMY MX-15). The thus obtained supernatant was filtrated with a 0.45-μm membrane, and the filtrate was used in the following immunoprecipitation experiment. […]
# Moreover, using the same samples. SAP145 and SAP130 were detected with the SAP145 antibody and the SAP130 antibody, respectively.
# Furthermore, an agarose resin prepared from probe-untreated cells was treated with a probe in the aforementioned experimental operations. Thereafter, UV irradiation and elution of a protein were carried out by the same operations as above, and it was examined whether or not the same band was detected in the obtained sample. […]
# SAP145 or SAP130 = target: T2, SAP145 or SAP130 (Homo sapiens, UniProt O75533+Q15393+Q7RTV0); assay: Detection of bound protein by treatment with photoaffinity biotin probe (immunoprecipitation, UV crosslinking, streptavidin-HRP); format: binding; details: 1.5 μM probe, MDA-MB-468 2000 g-pellet, all antibodies, SDS-PAGE
# T2 construct: endogenous in cells; host or cells: MDA-MB-468 (nuclear fraction, immunoprecipitate)
# Procedure: 2000 g-pellet was prepared from MDA-MB-468 cells by the method described in Example B1. This pellet was suspended in a CSK buffer (300 mM sucrose, 100 mM NaCl, 3 mM MgCl2, 10 mM PIPES, pH=7.0, protease inhibitor cocktail), and the obtained suspension was then treated with the 1.5 μM photoaffinity biotin probe synthesized in Example A3. The suspension was left at rest at 4° C. for 1 hour, and it was then centrifuged at 2000 g at 4° C. for 10 minutes. The supernatant was removed, and a nuclear fraction was then prepared from the obtained precipitate by the same method as that described in Example B1. Thereafter, an immunoprecipitation solution was prepared by the sable method as that described in Example B4.
# UV (365 nm and 302 nm) was applied to the obtained immunoprecipitate (agarose resin), and a crosslinking reaction was carried out. An SDS […] buffer was added to the reaction product, and the obtained mixture was then stirred with a vortex, followed by boiling at 99° C. for 10 minutes, so as to elute the immunoprecipitated proteins. The eluant was subjected to SDS-PAGE and blotting onto a PVDF membrane in accordance with common methods. Thereafter, the resultant was treated with streptavidin-HRP, so as to detect probe-bound proteins. […]
# [1] = tested on: human breast cancer cells MDA-MB-468; assay: Intracellular distribution of tritium probe compound (cell fractionation, cold inhibition, charcoal assay); format: cell-based
# Procedure: The tritiated probe compound produced in Example A1 was added to human breast cancer cells MDA-MB-468 (ATCC HTB-132) cultured on a 15-cm dish (>80% confluent), resulting in a concentration of 3 to 30 nM. The obtained mixture was then cultured in an incubator at 37° C. for 1 hour. After removing the medium, the culture was then washed with a Hanks' balanced salt solution (10 ml×2). Then, 3 ml of a 10% glycerol hypotonic buffer (10% glycerol, 20 mM NaCl, 1 mM EDTA, 10 mM Tris-HCl, pH=7.8, protease inhibitor cocktail) was added to the resultant. The obtained mixture was left at rest for a while, and the cells were then recovered using a cell scraper. A cell lysate was prepared using a Dounce homogenizer.
# The lysate was centrifuged at 2,000 g at 4° C. for 10 minutes, so as to obtain a supernatant (2000 g-sup.) and a precipitate (2000 g-pellet). 2000 g-sup. was further centrifuged at 100,000 g at 4° C. for 60 minutes, so as to obtain a cytosol fraction as a supernatant, and a membrane fraction as a precipitate. 2000 g-pellet was suspended in 0.5 M NaCl, and the suspension was then left at rest for 30 minutes under cooling on ice, so as to elute a nuclear protein. Thereafter, centrifugation was carried out at 3,000 g at 4° C. for 10 minutes, so as to obtain a nuclear fraction as a supernatant, and a nuclear pellet as a precipitate.
# The radioactivity of a tritium probe existing in each fraction was measured by the following method. That is, each of the cytosol fraction and the nuclear fraction was uniformly mixed with Hionic-Fluor (Perkin Elmer). On the other hand, each of the membrane fraction and the nuclear pellet was dissolved in Soluene-350 (Packard) (1 ml), and the obtained solution was then mixed with Hionic-Fluor. The radioactivity of each mixture was measured with a liquid scintillation counter.
# At the same time, a radioisotope-non-labeled-pladienolide was used to carry out a cold inhibition experiment. That is, the cells were treated with a pladienolide having a concentration (0.15 to 1.5 μM) that was 50 times higher than the tritium probe treatment concentration, and they were then cultured at 37° C. in an incubator for 1 hour. Thereafter, the culture was treated with a tritium probe, and each fraction was prepared. Then, the radioactivity thereof was measured.
# That is, 1/10 vol. (volume ratio) of a 10% activated charcoal suspension was added to each of the cytosol fraction and the nuclear fraction, followed by a treatment with a vortex for several seconds. The resultant was centrifuged at 15,000 rpm at 4° C. for 5 minutes (TOMY mini MX-15), and the radioactivity of the supernatant was measured in the same manner as that described above.
# U2 snRNP complex = target: T3, U2 snRNP complex (Homo sapiens, UniProt O75533+Q15393+Q7RTV0); assay: Immunoprecipitation experiment of nuclear fraction prepared from tritium probe-treated cells; format: binding; details: 30 nM probe, MDA-MB-468 nuclear fraction, TMG, U1A/U2B″, SM BB′ & D1, SAP155, SAP145, cyclin E antibodies
# T3 construct: endogenous in cells; host or cells: MDA-MB-468
# Procedure: MDA-MB-468 cells were cultured in the presence of a 30 nM tritium probe for 1 hour. Thereafter, a nuclear fraction was prepared by the same method as that described in Example B1. A dilution buffer was added to the nuclear fraction to a final concentration of 0.15 M NaCl, 0.05% CA-630 and 40 mM tris-HCl (pH=7.5), so as to prepare an immunoprecipitation solution.
# To this solution, each of antibodies reacting with splicing factors, transcriptional factors, or molecules associated with such factors were added to a concentration of 1 μg/ml. The obtained mixture was slowly stirred for approximately 12 hours in a low-temperature chamber of 4° C., using a sample rotator. Thereafter, 20 μl of 50% Protein A/G-agarose conjugate suspension was added to the reaction solution, and the obtained mixture was further stirred for 2 hours in the low-temperature chamber.
# The agarose resin was recovered, and it was then washed with a washing solution (0.15 M NaCl, 0.05% CA-630, 20 mM tris-HCl, pH=7.5). An SDS sample buffer was added to the resultant solution, and the obtained mixture was then stirred with a vortex. The reaction solution was boiled at 99° C. for 10 minutes, so as to elute the immunoprecipitated protein. The eluant was mixed homogeneously with Hionic-Fluor, and the radioactivity of a tritium probe existing in the eluant was then measured with a liquid scintillation counter.
compound,measurement,setting,value
"CCC(O)C(C)C1OC1CC(C)C=CC=C(C)C1OC(=O)CC(O)CCC(C)(O)C(OC(=O)NCCOCCOCCNC(=O)CCCCC2=[N+]3C(=Cc4c(C)cc(C)n4[B-]3(F)F)C=C2)C=CC1C (centres unmarked) [fluorescent probe, 7-(N-(2-(2-(2-(N-(5-(5,5-difluoro-7,9-dimethyl-5H-dipyrrolo[1,2-c:2′,1′-f][1,3,2]diazaborinin-4-ium-5-uid-3-yl)pentanoyl)amino)ethoxy)ethoxy)ethyl)carbamoyloxy)-3,6,21-trihydroxy-6,10,12,16,20-pentamethyl-18,19-epoxytricosa-8,12,14-trien-11-olide]",intracellular localization of fluorescent probe,"HeLa cells; 1 μM probe, 1 hour, co-staining with anti-SC-35 antibody",mainly localized in granular structures in the nuclei
"CCC(O)C(C)C1OC1CC(C)/C=C/C=C(\C)C1OC(=O)CC(O)CCC(C)(O)C(OC(=O)NCCCC[C@H](NC(=O)c2ccc(C3(C(F)(F)F)NN3)cc2)C(=O)N(C)CCN(C)C(=O)CCCC[C@@H]2SC[C@@H]3NC(=O)N[C@@H]32)/C=C/C1C (stereo partly drawn) [photoaffinity biotin probe, (8E,2E,14E)-3,621-trihydroxy-6,10,12,16,20-pentamethyl-7-(N-((5S)-6-(N-methyl-N-(2-(N-methyl-N-(5-((3aS,4S,6aR)-2-oxohexahydro-1H-thieno[3,4-d]imidazol-4-yl)pentanoyl)amino)ethyl)amino)-6-oxo-5-(N-(4-(3-(trifluoromethyl)-3H-diaziren-3-yl)benzoyl)amino)hexyl)carbamoyloxy)-18,19-epoxytricosa-8,12,14-trien-11-olide]",protein to which the probe has bound,SAP130,not SAP145 but SAP130
same,position of band of probe-bound protein,SAP145 or SAP130,130-140 kDa
CCC(O)C(C)C1OC1CC(C)/C=C/C=C(\C)C1OC(=O)CC(O)CCC(C)(O)C(O)/C=C/C1C (centres unmarked) [pladienolide A],fluorescence intensity derived from the fluorescent probe after competition (rank order),HeLa cells,pladienolide A >non-labeled tritium probe compound >pladienolides B and D
pladienolide D,fluorescence intensity derived from the fluorescent probe after competition (rank order),HeLa cells,pladienolide A >non-labeled tritium probe compound >pladienolides B and D
"(8E,12E,14E)-7-(N—[G-^3H]ethylcarbamoyloxy)-3,6,21-trihydroxy-6,10,12,16,20-pentamethyl-18,19-epoxytricosa-8,12,14-trien-11-olide [tritium probe]",radioactivity of tritium probe existing in each cell fraction,"[1]; MDA-MB-468 cells, probe 3 to 30 nM, 1 hour, cytosol, membrane, nuclear fraction, nuclear pellet",highest radioactivity of the tritium probe was detected in the nuclear fraction
same,radioactivity of the cytosol fraction after treatment with activated charcoal,"[1]; charcoal assay, cytosol fraction",almost all the radioactivity of the cytosol fraction disappeared
same,radioactivity in the nuclear fraction after treatment with activated charcoal,"[1]; charcoal assay, nuclear fraction",did not disappear
same,radioactivity of tritium probe co-immunoprecipitated with antibodies,U2 snRNP complex,specific radioactivity was observed
"CCC(O)C(C)C1OC1CC(C)/C=C/C=C(\C)C1OC(=O)CC(O)CCC(C)(O)C(OC(C)=O)/C=C/C1C (centres unmarked) [pladienolide B, reference compound]",radioactivity of tritium probe after pre-treatment with non-labeled pladienolide (cold inhibition),"[1]; pre-treatment at 50 times the tritium probe concentration (0.15 to 1.5 μM), 1 hour",almost completely disappeared
same,fluorescence intensity derived from the fluorescent probe after competition (rank order),HeLa cells,pladienolide A >non-labeled tritium probe compound >pladienolides B and D
